Test results as given in patent US20100190982A1, “PROCESS FOR THE PREPARATION OF LAMIVUDINE FORM I” (priority 2007, published 2010).
Read-outs that look alike come from different tables or passages of the source.

Legend:
[1] = Drying of Form I crystals at 80° C. (under reduced pressure), polymorphic change; type: physicochemical; details: for conversion of Form I to Form II on drying: drying at 80° C. (under reduced pressure)
Experimental: (§1) Therefore our endeavour was to prepare Lamivudine polymorph Form I, which is storage stable and remains unchanged during preparation of solid doses form. […] (under reduced pressure). Data has been generated up to 72 h drying at 80° C.
In the present invention, the Lamivudine polymorphic Form I obtained is 100% pure.

[2] = Storage of Form I crystals, polymorphic change; type: physicochemical
Experimental: as §1

[3] = Grinding / milling of Form I crystals, polymorphic change; type: physicochemical
Experimental: as §1

[4] = as stated in U.S. Pat. No. 5,905,082, cited from earlier work
[5] = Stability testing at 60° C.; type: physicochemical; details: two months

Compound	conversion of Form I to Form II on drying [1]	conversion to Form II on storage [2]	conversion to Form II when milled/grinded ([3]; milled/grinded)	relative stability of polymorphic form ([4]; listed as Form I crystals)	conversion of Form I to Form II in pharmaceutical unit operations ([4]; milling/grinding)	relative stability of polymorphic form [4]	conversion of Form I to Form II on drying ([1]; listed as Lamivudine polymorphic Form I)	polymorphic change on drying ([1]; up to 72 h drying at 80° C. (under reduced pressure))	chemical degradation in stability testing [5]	polymorphic change in stability testing [5]	change in polymorphic form on grinding ([3]; grinded neat for 5-15 min at 20-30° C.)
Nc1ccn([C@@H]2CS[C@H](CO)O2)c(=O)n1 [Lamivudine polymorphic Form I prepared by crystallisation fr]	partially converted into Form II	partially converted into Form II	partial conversion to Form II was observed	less stable	may cause conversion of Form I to Form II						
Nc1ccn([C@@H]2CS[C@H](CO)O2)c(=O)n1 [Form II, Lamivudine]						more stable polymorphic form					
Nc1ccn([C@@H]2CS[C@H](CO)O2)c(=O)n1 [Lamivudine Form I crystals prepared by the process of instan]	do not convert to Form II						does not change into other polymorphic form	no polymorphic change has been observed	neither chemical degradation	nor polymorphic change was observed	no change in polymorphic form has been observed
